In patent US20230158001A1, “PHARMACEUTICAL COMPOSITION COMPRISING BENZIMIDAZOLE DERIVATIVE COMPOUND” (HK INNO.N CORPORATION, priority 2020, published 2023):

How the values were obtained:
clinical = experiment: clinical; design: dose or concentration left out as unconfirmed
Procedure: (§1) The pharmacokinetic interactions of tegoprazan and aceclofenac when administered alone or in combination were evaluated in healthy adult males.

[1] = Pharmacokinetic interaction of tegoprazan and aceclofenac, alone or in combination (Cohort 2); settings: for effect of co-administration on pharmacokinetic properties: co-administration of tegoprazan and aceclofenac compared with administration alone; for Css,max, Geometric LS Mean: 7 days, N = 16
Procedure: as §1

[2] = Pharmacokinetic interaction of tegoprazan and celecoxib, alone or in combination (Cohort 3); settings: for Css,max, Geometric LS Mean: 7 days, N = 13; for effect of co-administration on pharmacokinetic properties: co-administration of tegoprazan and celecoxib compared with administration alone; for AUC: male, human, in vivo
[3] = Pharmacokinetic interaction of tegoprazan and naproxen, alone or in combination (Cohort 1); format: in vivo, human (healthy adult males); settings: for effect of co-administration on pharmacokinetic properties: co-administration of tegoprazan and naproxen compared with administration alone
[4] = tested on: naproxen-induced peptic ulcer model; experiment: Anti-ulcer activity in animal model of acute peptic ulcer induced by naproxen; format: in vivo, SD rat; settings: for ED50: Rattus norvegicus, read-out: ED50 (anti-ulcer efficacy)
Procedure: Specifically, each of tegoprazan (0.1 to 10 mg/kg) and esomeprazole (0.3 to 30 mg/kg) was orally administered to each SD rat that has fasted for 72 hours.

[5] = tegoprazan, co-administered with naproxen vs alone
[6] = tegoprazan, Treatment A: 50 mg tegoprazan alone once a day
[7] = tegoprazan, co-administered with celecoxib vs alone
[8] = tegoprazan, co-administered with aceclofenac vs alone

O=C(O)COC(=O)Cc1ccccc1Nc1c(Cl)cccc1Cl [Aceclofenac, aceclofenac, reference compound]
AUC (clinical): 20100 ng·h/mL
effect of co-administration on pharmacokinetic properties [1]: does not affect the pharmacokinetic properties

Cc1ccc(-c2cc(C(F)(F)F)nn2-c2ccc(S(N)(=O)=O)cc2)cc1 [Celecoxib, celecoxib, reference compound]
Css,max, Geometric LS Mean ([2]; celecoxib, Treatment F: 200 mg celecoxib alone twice a day): 1140 ng/mL
Css,max, Geometric LS Mean ([2]; celecoxib, Treatment G: 50 mg tegoprazan once a day + 200 mg celecoxib twice a day): 1350 ng/mL
effect of co-administration on pharmacokinetic properties [2]: does not affect the pharmacokinetic properties
AUC ([2]; 200 mg): 7800 ng·h/mL

COc1ccc2cc([C@H](C)C(=O)O)ccc2c1 [Naproxen, naproxen, reference compound]
effect of co-administration on pharmacokinetic properties [3]: does not affect the pharmacokinetic properties
Css,max, Geometric LS Mean ([3]; naproxen, Treatment B: 500 mg naproxen alone twice a day, 7 days, N = 17): 92.34 ng/mL
Css,max, Geometric LS Mean ([3]; naproxen, Treatment C: 50 mg tegoprazan once a day + 500 mg naproxen twice a day, 7 days, N = 17): 95.60 ng/mL

Cc1nc2cc(C(=O)N(C)C)cc(O[C@H]3CCOc4cc(F)cc(F)c43)c2[nH]1 [Tegoprazan, (S)-4-(5,7-difluorochroman-4-yloxy)-N,N,2-trimethyl-1H-benzo[d]imidazole-6-carboxamide]
ED50 [4]: 0.123 mg/kg
anti-ulcer activity ([4]; naproxen-induced peptic ulcer model, SD rats, oral 0.1 to 10 mg/kg): excellent anti-ulcer activity
effect of co-administration on pharmacokinetic properties [3]: does not affect the pharmacokinetic properties
AUC ([3]; male, human, in vivo, tegoprazan, Treatment A: 50 mg tegoprazan alone once a day, 7 days, N = 17, read-out: AUCτ, Geometric LS Mean): 2650 ng·h/mL
Css,max, Geometric LS Mean ([3]; tegoprazan, Treatment A: 50 mg tegoprazan alone once a day, 7 days, N = 17): 512.79 ng/mL
Css,max, Geometric LS Mean ([3]; tegoprazan, Treatment C: 50 mg tegoprazan once a day + 500 mg naproxen twice a day, 7 days, N = 17): 505.59 ng/mL
AUCτ, Geometric LS Mean Ratio (Treatment C/Treatment A), Point Estimate [3, 5]: 1.0105
Css,max, Geometric LS Mean Ratio (Treatment C/Treatment A), Point Estimate [3, 5]: 0.9859
effect of co-administration on pharmacokinetic properties [2]: does not affect the pharmacokinetic properties
AUC ([2]; 50 mg): 2990 ng·h/mL
Css,max, Geometric LS Mean [2, 6]: 663.83 ng/mL
Css,max, Geometric LS Mean ([2]; tegoprazan, Treatment G: 50 mg tegoprazan once a day + 200 mg celecoxib twice a day): 676.24 ng/mL
AUCτ, Geometric LS Mean Ratio (Treatment G/Treatment A), Point Estimate [2, 7]: 1.0111
Css,max, Geometric LS Mean Ratio (Treatment G/Treatment A), Point Estimate [2, 7]: 1.0187
effect of co-administration on pharmacokinetic properties [1]: does not affect the pharmacokinetic properties
AUC ([1]; male, human, in vivo, 50 mg): 2680 ng·h/mL
Css,max, Geometric LS Mean [1, 6]: 562.13 ng/mL
Css,max, Geometric LS Mean ([1]; tegoprazan, Treatment E: 50 mg tegoprazan once a day + 100 mg aceclofenac twice a day): 529.98 ng/mL
AUCτ, Geometric LS Mean Ratio (Treatment E/Treatment A), Point Estimate [1, 8]: 1.0269
Css,max, Geometric LS Mean Ratio (Treatment E/Treatment A), Point Estimate [1, 8]: 0.9428

COc1ccc2nc([S@@+]([O-])Cc3ncc(C)c(OC)c3C)[nH]c2c1 [esomeprazole, reference compound]
ED50 [4]: 4.12 mg/kg
